Data taken from US10195185B2, “3-(1H-imidazo[4,5-C]pyridin-2-yl)-1H-pyrazolo[4,3-B]pyridines and therapeutic uses thereof” (Samumed, LLC, priority 2015, dated 2019).

Assays:
[1] = tested on: Primary human fibroblasts derived from IPF patients (LL29 cells) treated with TGF-β1; assay: Inhibition of the fibrotic process: αSMA staining in TGF-β1 treated fibroblasts; format: cell-based; details: Fibroblast, 96 h, LL29 fibroblasts treated with TGF-β1, 4 days; for inhibition at 10 µM: read-out: percent inhibition in brackets beside EC50 >10 μM
Description: Representative compounds were screened using primary human fibroblasts (derived from IPF patients) treated with TGF-β1 to determine their ability to inhibit the fibrotic process.
Primary human fibroblasts derived from IPF patients (LL29 cells) [^1Xiaoqiu Liu, et. al., “Fibrotic Lung Fibroblasts Show Blunted Inhibition by cAMP Due to Deficient cAMP Response Element-Binding Protein Phosphorylation”, Journal of Pharmacology and Experimental Therapeutics (2005), 315(2), 678-687; ^2Watts, K. L., et. al., “RhoA signaling modulates cyclin D1 expression in human lung fibroblasts; implications for idiopathic pulmonary fibrosis”, Respiratory Research (2006), 7(1), 88] were obtained from American Type Culture Collection (ATCC) and expanded in F12 medium supplemented with 15% Fetal Bovine Serum and Penicillin/Streptomycin.
Each compound was dissolved in DMSO as a 10 mM stock and used to prepare compound source plates. Serial dilution (1:2, 11-point dose-response curves from 10 μM to 1.87 nM) and compound transfer was performed using the ECHO 550 (Labcyte, Sunnyvale, Calif.) into 384-well clear bottom assay plates (Greiner Bio-One) with appropriate DMSO backfill for a final DMSO concentration of 0.1%. LL29 cells are plated at 1,500 cells/well in 80 μL/well F12 medium supplemented with 1% Fetal Bovine Serum. One hour after addition of the cells, TGF-β1 (Peprotech; 20 ng/mL) was added to the plates to induce fibrosis (ref. 1 and 2 above). Wells treated with TGF-β1 and containing DMSO were used as controls. Cells were incubated at 37° C. and 5% CO2 for 4 days. Following incubation for 4 days, SYTOX green nucleic acid stain (Life Technologies [Thermo Fisher Scientific]) was added to the wells at a final concentration of 1 μM and incubated at room temperature for 30 min. Cells were then fixed using 4% formaldehyde (Electron Microscopy Sciences), washed 3 times with PBS followed by blocking and permeabilization using 3% Bovine Serum Albumin (BSA; Sigma) and 0.3% Triton X-100 (Sigma) in PBS. Cells were then stained with antibody specific to α-smooth muscle actin (αSMA; Abcam) (ref. 1 and 2 above) in 3% Bovine Serum Albumin (BSA; Sigma) and 0.3% Triton X-100 (Sigma) in PBS, and incubated overnight at 4° C. Cells were then washed 3 times with PBS, followed by incubation with Alexa Flor-647 conjugated secondary antibody (Life Technologies [Thermo Fisher Scientific]) and DAPI at room temperature for 1 hour. Cells were then washed 3 times with PBS and plates were sealed for imaging. αSMA staining was imaged by excitation at 630 nm and emission at 665 nm and quantified using the Compartmental Analysis program on the CellInsight CX5 (Thermo Scientific). Dead or apoptotic cells were excluded from analysis based on positive SYTOX green staining. % of total cells positive for αSMA were counted in each well and normalized to the average of 11 wells treated with TGF-β1 on the same plate using Dotmatics' Studies Software. The normalized averages (fold change over untreated) of 3 replicate wells for each compound concentration were used to create dose-responses curves and EC50 values were calculated using non-linear regression curve fit in the Dotmatics' Studies Software. For EC50 of >10 μM, the percent inhibition at 10 μM is provided.

[2] = tested on: IL-6 in human monocyte cell line (THP-1 cells); assay: IL-6 inhibition in LPS-stimulated THP-1 cells (HTRF); format: cell-based; details: IL-6 in LPS-stimulated THP-1 cells; for EC50: HTRF; for inhibition at 10 µM: read-out: percent inhibition in brackets beside EC50 >10 μM
Method: Human monocyte cell line (THP-1 cells; Catalog # TIB-202, ATCC, Manassas, Va.) were cultured in Roswell Park Memorial Institute (RPMI) 1640 Medium (Catalog #21870-100, Buffalo, N.Y.) with 1% L-glutamine, 1% HEPES, 1% Sodium Pyruvate, 2% Sodium Bicarbonate supplemented with 100 units/mL penicillin, 50 μg/mL streptomycin, 2-mercaptoethanol (0.05 mM) [basal medium] and 10% fetal bovine serum (Catalog #16140089, Life Technologies, Carlsbad, Calif.) at 37° C. and 5% CO2.
THP-1 cells were cultured in basal media with 1% FBS for 24 hours before the start of the assay. Each compound was dissolved in DMSO as a 10 mM stock and used to prepare compound source plates. Serial dilution (1:3, 10-point dose-response curves starting from 10 μM) and compound transfer was performed using the ECHO 550 (Labcyte, Sunnyvale, Calif.) into 384-well white low volume assay plates (Greiner Bio-One) with appropriate DMSO backfill for a final DMSO concentration of 0.1%. THP-1 cells were plated at 5000 cells/well in the 384-well plates and incubated at 37° C. for 2 h. 500 ng/mL of LPS was added after 2 hours and cells were incubated for another 22 hours at 37° C. Plates were spun in a centrifuge for 1 minute at […] and a mixture of anti-IL6 XL665, and anti-IL6 Cryptate diluted in reconstitution buffer (Cisbio Inc.) was added to each well. Following incubation for 3 hrs at room temperature, Homogeneous Time-Resolved Fluorescence (HTRF) was measured using the Envision (Perkin Elmer) at 665 nm and […]. The ratio of fluorescence at 665 nm to 620 nm was used as a readout for IL6 quantification. All samples were processed in duplicate. Readings were normalized to DMSO treated cells and normalized activities were utilized for EC50 calculations using the dose-response log (inhibitor) vs. response-variable slope (four parameters) nonlinear regression feature available in GraphPad Prism 5.0 (or Dotmatics). For EC50 of >10 μM, the percent inhibition at 10 μM is provided.

Row | SMILES | EC50 [1] [µM] | EC50 [2] [µM] | inhibition at 10 µM [2] [%] | inhibition at 10 µM [1] [%]
1 | c1ccc(CNCc2cncc(-c3ccc4[nH]nc(-c5nc6c(-c7ccsc7)nccc6[nH]5)c4n3)c2)cc1 [Compound 304, N-Benzyl-1-(5-(3-(4-(thiophen-3-yl)-1H-imidazo[4,5-c]pyridin-2-yl)-1H-pyrazolo [4,3-b]pyridin-5-yl)pyridin-3-yl)methanamine] | 6.56 | > 10 | 0 | –
2 | Cc1ccc(-c2nccc3[nH]c(-c4n[nH]c5ccc(C6=CCNCC6)nc45)nc23)s1 [Compound 730, 3-(4-(5-Methylthiophen-2-yl)-1H-imidazo[4,5-c]pyridin-2-yl)-5-(1,2,3,6-tetrahydropyridin-4-yl)-1H-pyrazolo[4,3-b]pyridine] | 6.17 | > 10 | 29.5 | –
3 | Cn1cc(-c2ccc3[nH]nc(-c4nc5c(-c6cccs6)nccc5[nH]4)c3n2)cn1 [Compound 700, 5-(1-Methyl-1H-pyrazol-4-yl)-3-(4-(thiophen-2-yl)-1H-imidazo[4,5-c]pyridin-2-yl)-1H-pyrazolo[4,3-b]pyridine] | 0.224 | > 10 | 0 | –
4 | O=C(Cc1ccccc1)Nc1cncc(-c2ccc3[nH]nc(-c4nc5cnccc5[nH]4)c3n2)c1 [Compound 262, N-(5-(3-(1H-imidazo[4,5-c]pyridin-2-yl)-1H-pyrazolo[4,3-b]pyridin-5-yl)pyridin-3-yl)-2-phenylacetamide] | > 10 | > 10 | 35.4 | 0
5 | NC1CN(c2cncc(-c3ccc4[nH]nc(-c5nc6c(-c7ccc(Cl)s7)nccc6[nH]5)c4n3)n2)C1 [Compound 1068, 1-(6-(3-(4-(5-Chlorothiophen-2-yl)-1H-imidazo[4,5-c]pyridin-2-yl)-1H-pyrazolo[4,3-b]pyridin-5-yl)pyrazin-2-yl)azetidin-3-amine] | 3.99 | > 10 | 19.2 | –
6 | c1cc2[nH]c(-c3n[nH]c4ccc(-c5cncc(CNCC6CCCC6)c5)nc34)nc2c(-c2ccoc2)n1 [Compound 333, 1-Cyclopentyl-N-((5-(3-(4-(furan-3-yl)-1H-imidazo[4,5-c]pyridin-2-yl)-1H-pyrazolo [4,3-b]pyridin-5-yl)pyridin-3-yl)methyl)methanamine] | > 10 | > 10 | 32.3 | 46.9
7 | O=C(CC1CCNCC1)Nc1cncc(-c2ccc3[nH]nc(-c4nc5c(-c6ccsc6)nccc5[nH]4)c3n2)c1 [Compound 673, 2-(Piperidin-4-yl)-N-(5-(3-(4-(thiophen-3-yl)-1H-imidazo[4,5-c]pyridin-2-yl)-1H-pyrazolo[4,3-b]pyridin-5-yl)pyridin-3-yl)acetamide] | 1.07 | > 10 | 40.5 | –
8 | COc1cccc(-c2nccc3[nH]c(-c4n[nH]c5ccc(-c6cccnc6)nc45)nc23)c1 [Compound 994, 3-(4-(3-Methoxyphenyl)-1H-imidazo[4,5-c]pyridin-2-yl)-5-(pyridin-3-yl)-1H-pyrazolo[4,3-b]pyridine] | 4.71 | > 10 | 18.6 | –
9 | CC(C)C(=O)Nc1cncc(-c2ccc3[nH]nc(-c4nc5c(N6CCN(C)CC6)nccc5[nH]4)c3n2)c1 [Compound 233, N-(5-(3-(4-(4-Methylpiperazin-1-yl)-1H-imidazo[4,5-c]pyridin-2-yl)-1H-pyrazolo[4,3-b]pyridin-5-yl)pyridin-3-yl)isobutyramide] | > 10 | > 10 | 24 | 2.5
10 | Fc1ccc(-c2nccc3[nH]c(-c4n[nH]c5ccc(-c6cncc(CN7CCCC7)c6)nc45)nc23)cc1 [Compound 42, 3-(4-(4-Fluorophenyl)-1H-imidazo[4,5-c]pyridin-2-yl)-5-(5-(pyrrolidin-1-ylmethyl)pyridin-3-yl)-1H-pyrazolo[4,3-b]pyridine] | 2.87 | > 10 | 23.3 | –
11 | CN1CCN(c2nccc3[nH]c(-c4n[nH]c5ccc(-c6cncc(N)c6)nc45)nc23)CC1 [Compound 227, 5-(3-(4-(4-Methylpiperazin-1-yl)-1H-imidazo[4,5-c]pyridin-2-yl)-1H-pyrazolo[4,3-b]pyridin-5-yl)pyridin-3-amine] | > 10 | > 10 | 32.3 | 22.5
12 | O=C(Nc1cncc(-c2ccc3[nH]nc(-c4nc5c(-c6ccc(F)cc6)nccc5[nH]4)c3n2)c1)C1CCC1 [Compound 49, N-(5-(3-(4-(4-Fluorophenyl)-1H-imidazo[4,5-c]pyridin-2-yl)-1H-pyrazolo [4,3-b]pyridin-5-yl)pyridin-3-yl)cyclobutanecarboxamide] | > 10 | > 10 | 0 | 7.5
13 | c1cc2[nH]c(-c3n[nH]c4ccc(-c5cncc(OC6CCNCC6)c5)nc34)nc2cn1 [Compound 656, 3-(1H-Imidazo[4,5-c]pyridin-2-yl)-5-(5-(piperidin-4-yloxy)pyridin-3-yl)-1H-pyrazolo[4,3-b]pyridine] | 3.33 | > 10 | 41.3 | –
14 | CCC(=O)Nc1cncc(-c2ccc3[nH]nc(-c4nc5c(N6CCCCC6)nccc5[nH]4)c3n2)c1 [Compound 169, N-(5-(3-(4-(Piperidin-1-yl)-1H-imidazo[4,5-c]pyridin-2-yl)-1H-pyrazolo [4,3-b]pyridin-5-yl)pyridin-3-yl)propionamide] | 7.89 | > 10 | 42.6 | –
15 | Oc1cncc(-c2ccc3[nH]nc(-c4nc5cnccc5[nH]4)c3n2)c1 [Compound 661, 5-(3-(1H-Imidazo[4,5-c]pyridin-2-yl)-1H-pyrazolo[4,3-b]pyridin-5-yl) pyridin-3-ol] | > 10 | > 10 | 31.3 | 0
16 | c1cncc(-c2ccc3[nH]nc(-c4nc5cnccc5[nH]4)c3n2)c1 [Compound 256, 3-(1H-Imidazo[4,5-c]pyridin-2-yl)-5-(pyridin-3-yl)-1H-pyrazolo[4,3-b]pyridine] | > 10 | > 10 | 35.5 | 0
